Laboratory results reported in patent publication US10821115B2, “Compounds that inhibit Mcl-1 protein” (priority 2017, dated 2020).
Like-named read-outs stand apart in the source and are kept apart here.

Experiments:
[1] = target: recombinant human Mcl-1 (residues 171-327) / Bim interaction (Homo sapiens (Human), UniProt Q07820); assay: biochemical; format: binding; details: read-out: Mcl-1 HTRF IC50
[2] = system: human multiple myeloma cell line, OPM-2; assay: Cell viability assay (OPM-2 10 FBS), CellTiter-Glo; format: cell-based
Summary of the method: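 OPM-2 cells at 3000 cells/well in RPMI 1640 with 10% FBS were exposed to serially diluted compounds for 16 h at 37 °C, 5% CO2.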

[3] = TR-FRET, Mcl-1(171-327) / biotin-Bim (51-76)
[4] = Homo sapiens, OPM-2, 16 h, read-out: OPM-2 10% FBS IC50 IP, OPM-2 cells, 10% FBS, 16 h, CellTiter-Glo
[5] = 0.1 nM Mcl-1(171-327), 0.05 nM biotin-Bim (51-76)
[6] = Homo sapiens, OPM-2, 16 h, read-out: OPM-2 10% FBS IC50 IP, OPM-2 cells, 10% FBS, 16 h incubation
[7] = read-out: OPM-2 10% FBS IC50 IP, OPM-2 cells, 10% FBS, 16 h, CellTiter-Glo

recombinant human Mcl-1 (residues 171-327) / Bim interaction, sequence (Q07820 171-327): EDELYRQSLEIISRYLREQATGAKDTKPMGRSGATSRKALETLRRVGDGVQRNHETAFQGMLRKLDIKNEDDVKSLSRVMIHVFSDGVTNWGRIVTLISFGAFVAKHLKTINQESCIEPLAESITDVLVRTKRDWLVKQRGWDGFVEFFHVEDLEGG

| Structure (SMILES) | IC50 [1, 3] [nM] | IC50 [2, 4] [nM] | IC50 [1, 5] [nM] | other results |
| --- | --- | --- | --- | --- |
| CCC(=O)C[C@]1(OC)/C=C/C[C@H](C)[C@@H](C)S(=O)(=O)NC(=O)c2ccc3c(c2)N(C[C@@H]2CC[C@H]21)C[C@@]1(CCCc2cc(Cl)ccc21)CO3 [Example 100457, (1S,3′R,6′R,7′S,8′E,11′S,12′R)-6-chloro-7′-methoxy-11′,12′-dimethyl-7′-(2-oxobutyl)-3,4-dihydro-2H,15′H-spiro[naphthalene-1,22′-[20]oxa[13]thia[1,14]diazatetracyclo [14.7.2.0~3,6~.0~19,24~]pentacosa[8,16,18,24]tetraen]-15′-one 13′,13′-dioxide] | 0.331 | 967 |  |  |
| CC[C@@H]1CCCC[C@](O)(COC)[C@@H]2CC[C@H]2CN2C[C@@]3(CCCc4cc(Cl)ccc43)COc3ccc(cc32)C(=O)NS1(=O)=O [Example 100040, (1S,3′R,6′R,7′R,12′R)-6-chloro-12′-ethyl-7′-hydroxy-7′-(methoxymethyl)-3,4-dihydro-2H,15′H-spiro[naphthalene-1,22′-[20]oxa[13]thia[1,14]diazatetracyclo [14.7.2.0~3,6~.0~19,24~]pentacosa[16,18,24]trien]-15′-one 13′,13′-dioxide] | 2.75 | 4950 |  |  |
| CO[C@@]1(c2csc(C)n2)/C=C/C[C@H](C)[C@@H](C)S(=O)(=O)NC(=O)c2ccc3c(c2)N(C[C@@H]2CC[C@H]21)C[C@@]1(CCCc2cc(Cl)ccc21)CO3 [Example 100517, (1S,3′R,6′R,7′S,8′E,11′S,12′R)-6-chloro-7′-methoxy-11′,12′-dimethyl-7′-(2-methyl-1,3-thiazol-4-yl)-3,4-dihydro-2H,15′H-spiro[naphthalene-1,22′-[20]oxa[13]thia[1,14]diazatetracyclo [14.7.2.0~3,6~.0~19,24~]pentacosa[8,16,18,24]tetraen]-15′-one 13′,13′-dioxide] | 1.06 | 3460 |  |  |
| C[C@@H]1[C@@H](C)C/C=C/[C@](O)(COCCN2CCOCC2)[C@@H]2CC[C@H]2CN2C[C@@]3(CCCc4cc(Cl)ccc43)COc3ccc(cc32)C(=O)NS1(=O)=O [Example 100356, (1S,3′R,6′R,7′R,8′E,11′S,12′R)-6-chloro-7′-hydroxy-11′,12′-dimethyl-7′-((2-(4-morpholinyl)ethoxy)methyl)-3,4-dihydro-2H,15′H-spiro[naphthalene-1,22′-[20]oxa[13]thia[1,14]diazatetracyclo [14.7.2.0~3,6~.0~19,24~]pentacosa[8,16,18,24]tetraen]-15′-one 13′,13′-dioxide] | 0.084 | 71 |  |  |
| CC(C)C[C@]1(O)/C=C/C[C@H](C)[C@@H](C)S(=O)(=O)NC(=O)c2ccc3c(c2)N(C[C@@H]2CC[C@H]21)C[C@@]1(CCCc2cc(Cl)ccc21)CO3 [Example 100224, (1S,3′R,6′R,7′S,8′E,11′S,12′R)-6-chloro-7′-hydroxy-11′,12′-dimethyl-7′-(2-methylpropyl)-3,4-dihydro-2H,15′H-spiro[naphthalene-1,22′-[20]oxa[13]thia[1,14]diazatetracyclo [14.7.2.0~3,6~.0~19,24~]pentacosa[8,16,18,24]tetraen]-15′-one 13′,13′-dioxide] | 0.345 | 385 |  |  |
| CCO[C@]1(CN2CCN3CCCC[C@@H]3C2)/C=C/C[C@H](C)[C@@H](C)S(=O)(=O)NC(=O)c2ccc3c(c2)N(C[C@@H]2CC[C@H]21)C[C@@]1(CCCc2cc(Cl)ccc21)CO3 [Example 108, (1S,3′R,6′R,7′R,8′E,11′S,12′R)-6-chloro-7′-ethoxy-11′,12′-dimethyl-7′-((9aR)-octahydro-2H-pyrido[1,2-a]pyrazin-2-ylmethyl)-3 ,4-dihydro-2H,15′H-spiro[naphthalene-1,22′-[20]oxa[13]thia[1,14]diazatetracyclo [14.7.2.0~3,6~.0~19,24~]pentacosa[8,16,18,24]tetraen]-15′-one 13′,13′-dioxide] |  |  | 0.198 | IC50 [2, 6]: 116 nM |
| C[C@@H]1[C@@H](C)C/C=C/[C@@](O)(C#CCN2CCOCC2)[C@@H]2CC[C@H]2CN2C[C@@]3(CCCc4cc(Cl)ccc43)COc3ccc(cc32)C(=O)NS1(=O)=O [Example 100320, (1S,3′R,6′R,7′S,8′E,11′S,12′R)-6-chloro-7′-hydroxy-11′,12′-dimethyl-7′-(3-(4-morpholinyl)-1-propyn-1-yl)-3,4-dihydro-2H,15′H-spiro[naphthalene-1,22′-[20]oxa[13]thia[1,14]diazatetracyclo [14.7.2.0~3,6~.0~19,24~]pentacosa[8,16,18,24]tetraen]-15′-one 13′,13′-dioxide] | 1.2 |  |  | IC50 [2, 7]: 2140 nM |
| CO[C@]1(CN2C[C@H]3CN(C)C[C@H]3C2)/C=C/C[C@H](C)[C@@H](C)S(=O)(=O)NC(=O)c2ccc3c(c2)N(C[C@@H]2CC[C@H]21)C[C@@]1(CCCc2cc(Cl)ccc21)CO3 [Example 82] |  |  | 0.394 | IC50 [2, 6]: 520 nM |
| CO[C@]1(CN2CCN(CCS(C)(=O)=O)CC2)/C=C/C[C@H](C)[C@@H](C)S(=O)(=O)NC(=O)c2ccc3c(c2)N(C[C@@H]2CC[C@H]21)C[C@@]1(CCCc2cc(Cl)ccc21)CO3 [Example 73, (1S,3′R,6′R,7′R,8′E,11′S,12′R)-6-chloro-7′-methoxy-11′,12′-dimethyl-7′-((4-(2-(methylsulfonyl)ethyl)-1-piperazinyl)methyl)-3,4-dihydro-2H,15′H-spiro[naphthalene-1,22′-[20]oxa[13]thia[1,14]diazatetracyclo [14.7.2.0~3,6~.0~19,24~]pentacosa[8,16,18,24]tetraen]-15′-one 13′,13′-dioxide] |  |  | 0.609 | IC50 [2, 6]: 129 nM |
| C[C@@H]1[C@@H](C)C/C=C/[C@](O)(Cc2ccnc(C#N)c2)[C@@H]2CC[C@H]2CN2C[C@@]3(CCCc4cc(Cl)ccc43)COc3ccc(cc32)C(=O)NS1(=O)=O [Example 100188, 4-(((1S,3′R,6′R,7′R,8′E,11′S,12′R)-6-chloro-7′-hydroxy-11′,12′-dimethyl-13′,13′-dioxido-15′-oxo-3,4-dihydro-2H-spiro[naphthalene-1,22′-[20]oxa[13]thia[1,14]diazatetracyclo [14.7.2.0~3,6~.0~19,24~]pentacosa[8,16,18,24]tetraen]-7′-yl)methyl)-2-pyridinecarbonitrile] | 0.877 |  |  | IC50 [2, 7]: 735 nM |
| CO[C@@]1(CN2CCN3CCN(C(=O)CCS(=O)(=O)c4ccccc4)C[C@@H]3C2)/C=C/C[C@H](C)[C@@H](C)S(=O)(=O)NC(=O)c2ccc3c(c2)N(C[C@@H]2CC[C@H]21)C[C@@]1(CCCc2cc(Cl)ccc21)CO3 [Example 233] |  |  | 0.516 | IC50 ([2]; read-out: OPM-2 10% FBS IC50 IP, OPM-2 cells, 10% FBS, 16 h incubation): 202 nM |
| CO[C@]1(CN2CC(=O)N3CCCC[C@@H]3C2)/C=C/C[C@H](C)[C@@H](C)S(=O)(=O)NC(=O)c2ccc3c(c2)N(C[C@@H]2CC[C@H]21)C[C@@]1(CCCc2cc(Cl)ccc21)CO3 [Example 149] |  |  | 0.128 | IC50 [2, 6]: 119 nM |
| CO[C@@]1(COCCN2CCOCC2)/C=C/C[C@H](C)[C@@H](C)S(=O)(=O)NC(=O)c2ccc3c(c2)N(C[C@@H]2CC[C@H]21)C[C@@]1(CCCc2cc(Cl)ccc21)CO3 [Example 100590, (1S,3′R,6′R,7′S,8′E,11′S,12′R)-6-chloro-7′-methoxy-11′,12′-dimethyl-7′-((2-(4-morpholinyl)ethoxy)methyl)-3,4-dihydro-2H,15′H-spiro[naphthalene-1,22′-[20]oxa[13]thia[1,14]diazatetracyclo [14.7.2.0~3,6~.0~19,24~]pentacosa[8,16,18,24]tetraen]-15′-one 13′,13′-dioxide] | 0.086 | 501 |  |  |
| CO[C@@]1(c2cncnc2)/C=C/C[C@H](C)[C@@H](C)S(=O)(=O)NC(=O)c2ccc3c(c2)N(C[C@@H]2CC[C@H]21)C[C@@]1(CCCc2cc(Cl)ccc21)CO3 [Example 100468, (1S,3′R,6′R,7′S,8′E,11′S,12′R)-6-chloro-7′-methoxy-11′,12′-dimethyl-7′-(5-pyrimidinyl)-3,4-dihydro-2H,15′H-spiro[naphthalene-1,22′-[20]oxa[13]thia[1,14]diazatetracyclo [14.7.2.0~3,6~.0~19,24~]pentacosa[8,16,18,24]tetraen]-15′-one 13′,13′-dioxide] | 0.393 | 943 |  |  |
| CO[C@@]1([C@@H](C)O)/C=C/C[C@H](C)[C@@H](C)S(=O)(=O)NC(=O)c2ccc3c(c2)N(C[C@@H]2CC[C@H]21)C[C@@]1(CCCc2cc(Cl)ccc21)CO3 (stereo in doubt) [Example 100487] | 0.436 | 340 |  |  |
| C[C@@H]1[C@@H](C)C/C=C/[C@@](O)(Cc2ccccn2)[C@@H]2CC[C@H]2CN2C[C@@]3(CCCc4cc(Cl)ccc43)COc3ccc(cc32)C(=O)NS1(=O)=O [Example 100241, (1S,3′R,6′R,7′S,8′E,11′S,12′R)-6-chloro-7′-hydroxy-11′,12′-dimethyl-7′-(2-pyridinylmethyl)-3,4-dihydro-2H,15′H-spiro[naphthalene-1,22′-[20]oxa[13]thia[1,14]diazatetracyclo [14.7.2.0~3,6~.0~19,24~]pentacosa[8,16,18,24]tetraen]-15′-one 13′,13′-dioxide] | 0.365 |  |  | IC50 [2, 7]: 401 nM |
| CO[C@@]1(CN2CCN(C(C)=O)CC2)/C=C/C[C@H](C)[C@@H](C)S(=O)(=O)NC(=O)c2ccc3c(c2)N(C[C@@H]2CC[C@H]21)C[C@@]1(CCCc2cc(Cl)ccc21)CO3 [Example 249, (1S,3′R,6′R,7′S,8′E,11′S,12′R)-7′-((4-acetyl-1-piperazinyl)methyl)-6-chloro-7′-methoxy-11′,12′-dimethyl-3,4-dihydro-2H,15′H-spiro[naphthalene-1,22′-[20]oxa[13]thia[1,14]diazatetracyclo [14.7.2.0~3,6~.0~19,24~]pentacosa[8,16,18,24]tetraen]-15′-one 13′,13′-dioxide] |  |  | 0.063 | IC50 [2, 6]: 114 nM |
